Tested on: progressive mCRPC patients
Experiment: Response to AR targeted therapy by baseline CTC AR expression (Epic CTC), Example 1
Format: in vivo, human
Details: pooled AA+P or E patients; for patients with high AR who responded: high baseline AR expression on CTCs, N = 7; for patients with low AR who had a PSA decline and stable radiographic disease: low baseline AR expression on CTCs, N = 14, median follow-up 12 wks
Text: 48 samples from 21 unique progressive mCRPC patients treated with androgen receptor targeted (AR tx) therapies, 9 (43%) on Abiraterone plus Prednisone (AA+P) and 12 (57%) on Enzalutamide (E). Samples were collected and shipped to Epic Sciences, where cells were stained and CTC identified by fluorescent scanners and algorithmic analysis. CTCs, defined as classic (CK+CD45-w/intact DAPI nuclei and distinct), apopotic (CK+, CD45−, non-intact nuclei) and CK− (CK−, CD45-, intact and distinct) were identified. CTCs reported per mL of blood and were examined for AR, PTEN & ERG. CTC data were analyzed in context of PSA, Veridex CTC (reported per 7.5mL of blood), and clinical history.

Row | Compound | patients with high AR who responded | patients with low AR who had a PSA decline and stable radiographic disease
1 | Abiraterone plus Prednisone | 0% | 53%
2 | CNC(=O)c1ccc(N2C(=S)N(c3ccc(C#N)c(C(F)(F)F)c3)C(=O)C2(C)C)cc1F [Enzalutamide] | 0% | 53%
